Experimental data published in ChEMBL document CHEMBL1201862, “PubChem BioAssay data set” (2004).
Activity calls are given as the source filed them.

Tests used:
[1] = biological target: T1, Voltage-gated N-type calcium channel alpha-1B subunit/Amyloid beta A4 precursor protein-binding family A member 1 (Homo sapiens, UniProt Q00975+Q02410); type: protein assay
SUMO-activating enzyme [2] = biological target: T2, SUMO-activating enzyme (Homo sapiens, UniProt Q9UBT2); assay: inhibitors of in vitro SUMOylation cascade, primary screen, biochemical, HTRF, uHTS (AID 2006); type: protein-complex assay
[3] = biological target: Guanyl-specific ribonuclease T1 (Aspergillus oryzae (strain ATCC 42149 / RIB 40), UniProt P00651); assay: RNase T1 inhibitors, dose response, counter-screen for TPT1 inhibitor project, biochemical, fluorescence polarization, 1536-well (AID 2167)
[4] = biological target: T3, Small ubiquitin-related modifier 1 (Homo sapiens, UniProt P63165); assay: inhibitors of SUMO1 partner interactions, dose response, biochemical, FRET (AID 624383); type: functional; settings: read-out: IC50_Mean
[5] = biological target: T4, Dual specificity protein phosphatase 3 (Homo sapiens, UniProt P51452); assay: VHR1 phosphatase inhibitors, biochemical (AID 1878)
[6] = biological target: Likely tRNA 2'-phosphotransferase (Candida albicans (strain SC5314 / ATCC MYA-2876) (Yeast), UniProt Q5A7N4); assay: TPT1 tRNA phosphotransferase inhibitors, dose response, biochemical, fluorescence polarization (AID 2160)
SUMO-activating enzyme [7] = biological target: T2, SUMO-activating enzyme; assay: SUMOylation inhibitor hit validation, confirmation, SUMOylation inhibitor project, biochemical, AlphaScreen (AID 2018); type: functional
[8] = biological target: T5, Dual specificity protein phosphatase 6 (Rattus norvegicus, UniProt Q64346); assay: MKP-3 phosphatase inhibitors, primary screen, biochemical, rat enzyme, in vitro (AID 425)
T5 sequence (Q64346 whole entry): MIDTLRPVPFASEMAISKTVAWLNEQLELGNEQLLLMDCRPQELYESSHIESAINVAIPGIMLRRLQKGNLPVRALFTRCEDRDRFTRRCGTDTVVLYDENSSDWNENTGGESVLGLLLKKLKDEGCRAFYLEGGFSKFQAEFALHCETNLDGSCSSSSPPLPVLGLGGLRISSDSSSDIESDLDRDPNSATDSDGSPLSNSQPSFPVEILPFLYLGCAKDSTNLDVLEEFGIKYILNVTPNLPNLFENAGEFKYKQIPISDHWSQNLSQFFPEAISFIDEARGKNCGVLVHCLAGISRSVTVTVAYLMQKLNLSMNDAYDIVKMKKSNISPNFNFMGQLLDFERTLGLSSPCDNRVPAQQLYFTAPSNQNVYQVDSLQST

[9] = biological target: T3, Small ubiquitin-related modifier 1; assay: inhibitors of SUMO1 peptide binding, dose response, biochemical, fluorescence polarization, uHTS hits (AID 624382); type: functional; settings: read-out: IC50_Mean
[10] = biological target: T4, Dual specificity protein phosphatase 3; assay: VHR1 phosphatase inhibitors, primary screen, biochemical, absorbance, uHTS (AID 1654)
[11] = biological target: T1, Voltage-gated N-type calcium channel alpha-1B subunit/Amyloid beta A4 precursor protein-binding family A member 1; type: protein assay; remark: listed apart in the source
[12] = biological target: T6, Serine/threonine-protein phosphatase (Candida dubliniensis (strain CD36 / CBS 7987 / NCPF 3949 / NRRLY-17841) (Yeast), UniProt B9W6M3); assay: calcineurin pathway inhibitors in yeast reporter, dose response, S. cerevisiae, CDRE-lacZ, luminescence, secondary (AID 2388); type: functional, cell-based;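 further: yeast reporter cells carrying a calcineurin-responsive lacZ construct stimulated with calcium chloride; luminescent beta-galactosidase reporter signal in whole cells rather than isolated phosphatase activity; potency for inhibition where a drop in reporter signal means calcineurin blockade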
T6 sequence (B9W6M3 whole entry): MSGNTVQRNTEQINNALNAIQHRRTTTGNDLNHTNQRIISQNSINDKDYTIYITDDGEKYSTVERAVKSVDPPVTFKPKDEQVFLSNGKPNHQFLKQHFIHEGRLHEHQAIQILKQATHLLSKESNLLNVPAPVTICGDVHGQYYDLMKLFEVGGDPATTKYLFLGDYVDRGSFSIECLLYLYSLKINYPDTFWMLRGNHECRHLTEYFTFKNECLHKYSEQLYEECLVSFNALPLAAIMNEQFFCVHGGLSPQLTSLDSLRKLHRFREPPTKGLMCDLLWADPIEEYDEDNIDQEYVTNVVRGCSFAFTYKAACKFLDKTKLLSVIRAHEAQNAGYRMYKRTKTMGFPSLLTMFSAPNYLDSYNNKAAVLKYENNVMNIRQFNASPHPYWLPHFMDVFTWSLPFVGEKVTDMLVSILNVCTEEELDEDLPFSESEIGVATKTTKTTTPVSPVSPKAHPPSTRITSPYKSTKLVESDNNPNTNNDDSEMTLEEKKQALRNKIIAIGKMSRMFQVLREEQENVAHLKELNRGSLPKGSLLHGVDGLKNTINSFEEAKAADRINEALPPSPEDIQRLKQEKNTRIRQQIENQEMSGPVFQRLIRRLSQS

[13] = tested on: Streptococcus sp. 'group A'; assay: growth inhibition of control SK(-) GAS strain, dose response, counter-screen for streptokinase expression inhibitor project, luminescence, kanamycin, BacTiterGlo, confirmation (AID 1900); type: functional, organism-based
[14] = biological target: ATP-dependent molecular chaperone HSP82 (Candida albicans (strain WO-1) (Yeast), UniProt C4YTQ8); assay: loss of DOC-induced GRE-beta-galactosidase reporter signal, dose response, Hsp90 inhibitor project, S. cerevisiae, luminescence (AID 2400); type: functional, cell-based;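 further: beta-galactosidase luminescence from glucocorticoid response element reporter as proxy for Hsp90 function; inhibitor potency where signal loss means Hsp90 inhibition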
Exodeoxyribonuclease V = Exodeoxyribonuclease V (Escherichia coli (strain K12), UniProt P04993+P07648+P08394); assay: E. coli RecBCD inhibitors, dose response, counter-screen for AddAB inhibitor project, absorbance, V66 E. coli, mutant T4 phage (AID 492957); type: functional, cell-based, Escherichia coli str. K-12 substr. MG1655
[15] = NIH-3T3 fibroblast cytotoxicity, dose response, cytotoxicity control for antifungal single agent project, cell-based, Alamar Blue, dry powder (AID 602188); type: functional
Streptococcus = assay: Group A Streptococcus viability loss, dose response, counter-screen for streptokinase expression inhibitor project, luminescence, BacTiterGlo (AID 1915); type: functional, organism-based;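 further: potency for reduction of bacterial viability or growth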
[16] = NIH-3T3 fibroblast cytotoxicity, dose response, cytotoxicity control, cell-based, fluorescence, Alamar Blue, secondary assay (AID 2327); type: functional;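 further: NIH-3T3 mouse fibroblasts cultured with fluconazole at 8 µg/mL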
[17] = biological target: T7, High affinity choline transporter 1 (Homo sapiens, UniProt Q9GZV3); assay: CHT inhibitors, dose response, cell-based, 5-point CRC, membrane potential dye (AID 504840); type: functional
T7 sequence (Q9GZV3 whole entry): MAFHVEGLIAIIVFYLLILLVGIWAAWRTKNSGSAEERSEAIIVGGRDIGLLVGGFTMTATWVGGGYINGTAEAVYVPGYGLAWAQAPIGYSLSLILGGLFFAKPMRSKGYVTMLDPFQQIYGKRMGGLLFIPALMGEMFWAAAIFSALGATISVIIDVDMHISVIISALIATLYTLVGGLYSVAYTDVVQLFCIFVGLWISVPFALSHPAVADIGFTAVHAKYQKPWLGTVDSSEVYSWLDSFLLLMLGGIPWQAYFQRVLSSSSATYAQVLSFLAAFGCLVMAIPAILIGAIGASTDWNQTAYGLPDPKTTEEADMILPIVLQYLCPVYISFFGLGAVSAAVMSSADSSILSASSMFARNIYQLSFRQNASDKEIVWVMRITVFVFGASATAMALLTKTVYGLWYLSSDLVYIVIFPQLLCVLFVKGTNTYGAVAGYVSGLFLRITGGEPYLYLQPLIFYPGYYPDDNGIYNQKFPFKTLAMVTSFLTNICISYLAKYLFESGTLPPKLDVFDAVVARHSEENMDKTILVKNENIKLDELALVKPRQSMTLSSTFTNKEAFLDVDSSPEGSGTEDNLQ

[18] = Counterscreen for AddAB inhibitors: absorbance-based bacterial cell-based high throughput dose response assay for inhibitors of bacterial viability. [Related pubchem assays (depositor defined):AID435030, AID449728, AID449731, AID488942, AID488955, AID488956]; type: functional
[19] = C. albicans growth with fluconazole, confirmation, fluorescence, retest (AID 2467); type: functional, cell-based
[20] = biological target: Glyceraldehyde-3-phosphate dehydrogenase (Homo sapiens, UniProt P04406)
Tumor necrosis factor = Tumor necrosis factor (Homo sapiens, UniProt P01375); assay: TNFa-triggered NF-kB activation inhibitors, SAR follow-up, cell-based, set 3 (AID 2801); type: functional
HEK293 = assay: SAR analysis of compounds that are cytotoxic to HEK293 - Set 3. [Related pubchem assays (depositor defined):AID1575, AID1578, AID1848, AID1849, AID2001, AID2333, AID2334, AID2335, AID2337, AID2469]; type: functional, cell-based; settings: Homo sapiens
[21] = biological target: Nucleotide-binding oligomerization domain-containing protein 2 (Homo sapiens, UniProt Q9HC29); assay: NOD2 signaling inhibitors, analog potency, SAR follow-up, cell-based, set 3 (AID 2799); type: functional
Bcl-2-related protein A1 [22] = biological target: T8, Bcl-2-related protein A1 (Mus musculus, UniProt Q07440); assay: Bfl-1 binding inhibitors, SAR follow-up, biochemical, fluorescence polarization (AID 1070)
T8 sequence (Q07440 whole entry): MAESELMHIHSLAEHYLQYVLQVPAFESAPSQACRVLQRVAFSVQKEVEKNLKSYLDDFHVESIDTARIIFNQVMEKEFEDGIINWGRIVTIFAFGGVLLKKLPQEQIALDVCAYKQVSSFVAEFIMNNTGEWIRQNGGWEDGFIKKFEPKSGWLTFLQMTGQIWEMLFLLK

[23] = biological target: T9, Nucleotide-binding oligomerization domain-containing protein 1 (Homo sapiens, UniProt Q9Y239); assay: SAR analysis of compounds that inhibit NOD1 - Set 3. [Related pubchem assays (depositor defined):AID1566, AID1575, AID1578, AID1849, AID1852, AID2333, AID2335, AID2466]; type: functional
T9 sequence (Q9Y239 whole entry): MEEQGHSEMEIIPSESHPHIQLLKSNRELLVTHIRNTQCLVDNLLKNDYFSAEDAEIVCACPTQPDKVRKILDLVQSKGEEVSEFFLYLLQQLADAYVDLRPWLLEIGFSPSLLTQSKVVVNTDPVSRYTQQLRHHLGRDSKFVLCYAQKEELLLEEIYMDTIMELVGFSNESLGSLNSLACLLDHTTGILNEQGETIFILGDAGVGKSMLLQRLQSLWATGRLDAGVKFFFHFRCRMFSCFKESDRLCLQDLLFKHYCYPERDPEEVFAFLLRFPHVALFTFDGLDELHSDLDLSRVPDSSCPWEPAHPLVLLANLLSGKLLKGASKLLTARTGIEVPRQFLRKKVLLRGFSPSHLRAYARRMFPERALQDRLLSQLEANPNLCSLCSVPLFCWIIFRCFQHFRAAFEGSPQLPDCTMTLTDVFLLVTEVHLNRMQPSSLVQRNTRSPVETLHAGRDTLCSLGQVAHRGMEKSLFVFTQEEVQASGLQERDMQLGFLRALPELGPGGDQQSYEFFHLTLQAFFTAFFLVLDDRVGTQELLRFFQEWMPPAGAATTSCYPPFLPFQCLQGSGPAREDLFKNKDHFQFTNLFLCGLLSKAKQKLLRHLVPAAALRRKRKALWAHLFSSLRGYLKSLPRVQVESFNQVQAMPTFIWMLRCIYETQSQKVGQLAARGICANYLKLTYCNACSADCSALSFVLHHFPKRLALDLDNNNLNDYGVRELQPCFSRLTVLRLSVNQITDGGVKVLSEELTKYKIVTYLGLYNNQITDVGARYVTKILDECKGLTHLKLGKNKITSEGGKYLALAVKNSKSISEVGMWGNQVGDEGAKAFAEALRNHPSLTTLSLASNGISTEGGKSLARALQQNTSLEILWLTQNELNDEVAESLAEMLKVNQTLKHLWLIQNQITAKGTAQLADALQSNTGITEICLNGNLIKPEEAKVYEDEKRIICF

Bcl-2-related protein A1 [24] = biological target: T8, Bcl-2-related protein A1; assay: Bfl-1 inhibitors blocking BH3 peptide binding, confirmation, biochemical, TR-FRET, mouse Bfl-1 (AID 621);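 further: TR-FRET binding of GST-Bfl-1 to FITC-labelled Bid peptide via terbium antibody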
[25] = biological target: Alkaline phosphatase, tissue-nonspecific isozyme (Homo sapiens, UniProt P05186); assay: TNAP enzyme inhibition by screening hits, dose response, selectivity assay for mouse IAP inhibitor project, biochemical, human TNAP, uHTS hits (AID 488906); type: functional
[26] = biological target: Intestinal-type alkaline phosphatase (Mus musculus, UniProt P24822); assay: PubChem AID 488785; type: functional
[27] = biological target: Intestinal-type alkaline phosphatase (Homo sapiens, UniProt P09923); assay: inhibition of human intestinal alkaline phosphatase – biochemical, dose response (AID 488876); type: functional
[28] = cytotoxicity toward NIH3T3 fibroblasts, dose response, counter-screen, cell-based, ATP luminescence, mouse fibroblasts (AID 2010); type: functional;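 further: cells exposed to compound for about 90 hours before reading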
[29] = inhibitors of intracellular T. cruzi replication, confirmation, NIH3T3 host cells, beta-gal luminescence (AID 2044); type: functional, cell-based;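 further: intracellular parasites grown in NIH/3T3 mouse fibroblasts as host cells; luminescent beta-galactosidase reporter signal from transgenic T. cruzi replicating inside host cells; inhibitors lower the luminescence signal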

T1 sequence (Q00975 whole entry): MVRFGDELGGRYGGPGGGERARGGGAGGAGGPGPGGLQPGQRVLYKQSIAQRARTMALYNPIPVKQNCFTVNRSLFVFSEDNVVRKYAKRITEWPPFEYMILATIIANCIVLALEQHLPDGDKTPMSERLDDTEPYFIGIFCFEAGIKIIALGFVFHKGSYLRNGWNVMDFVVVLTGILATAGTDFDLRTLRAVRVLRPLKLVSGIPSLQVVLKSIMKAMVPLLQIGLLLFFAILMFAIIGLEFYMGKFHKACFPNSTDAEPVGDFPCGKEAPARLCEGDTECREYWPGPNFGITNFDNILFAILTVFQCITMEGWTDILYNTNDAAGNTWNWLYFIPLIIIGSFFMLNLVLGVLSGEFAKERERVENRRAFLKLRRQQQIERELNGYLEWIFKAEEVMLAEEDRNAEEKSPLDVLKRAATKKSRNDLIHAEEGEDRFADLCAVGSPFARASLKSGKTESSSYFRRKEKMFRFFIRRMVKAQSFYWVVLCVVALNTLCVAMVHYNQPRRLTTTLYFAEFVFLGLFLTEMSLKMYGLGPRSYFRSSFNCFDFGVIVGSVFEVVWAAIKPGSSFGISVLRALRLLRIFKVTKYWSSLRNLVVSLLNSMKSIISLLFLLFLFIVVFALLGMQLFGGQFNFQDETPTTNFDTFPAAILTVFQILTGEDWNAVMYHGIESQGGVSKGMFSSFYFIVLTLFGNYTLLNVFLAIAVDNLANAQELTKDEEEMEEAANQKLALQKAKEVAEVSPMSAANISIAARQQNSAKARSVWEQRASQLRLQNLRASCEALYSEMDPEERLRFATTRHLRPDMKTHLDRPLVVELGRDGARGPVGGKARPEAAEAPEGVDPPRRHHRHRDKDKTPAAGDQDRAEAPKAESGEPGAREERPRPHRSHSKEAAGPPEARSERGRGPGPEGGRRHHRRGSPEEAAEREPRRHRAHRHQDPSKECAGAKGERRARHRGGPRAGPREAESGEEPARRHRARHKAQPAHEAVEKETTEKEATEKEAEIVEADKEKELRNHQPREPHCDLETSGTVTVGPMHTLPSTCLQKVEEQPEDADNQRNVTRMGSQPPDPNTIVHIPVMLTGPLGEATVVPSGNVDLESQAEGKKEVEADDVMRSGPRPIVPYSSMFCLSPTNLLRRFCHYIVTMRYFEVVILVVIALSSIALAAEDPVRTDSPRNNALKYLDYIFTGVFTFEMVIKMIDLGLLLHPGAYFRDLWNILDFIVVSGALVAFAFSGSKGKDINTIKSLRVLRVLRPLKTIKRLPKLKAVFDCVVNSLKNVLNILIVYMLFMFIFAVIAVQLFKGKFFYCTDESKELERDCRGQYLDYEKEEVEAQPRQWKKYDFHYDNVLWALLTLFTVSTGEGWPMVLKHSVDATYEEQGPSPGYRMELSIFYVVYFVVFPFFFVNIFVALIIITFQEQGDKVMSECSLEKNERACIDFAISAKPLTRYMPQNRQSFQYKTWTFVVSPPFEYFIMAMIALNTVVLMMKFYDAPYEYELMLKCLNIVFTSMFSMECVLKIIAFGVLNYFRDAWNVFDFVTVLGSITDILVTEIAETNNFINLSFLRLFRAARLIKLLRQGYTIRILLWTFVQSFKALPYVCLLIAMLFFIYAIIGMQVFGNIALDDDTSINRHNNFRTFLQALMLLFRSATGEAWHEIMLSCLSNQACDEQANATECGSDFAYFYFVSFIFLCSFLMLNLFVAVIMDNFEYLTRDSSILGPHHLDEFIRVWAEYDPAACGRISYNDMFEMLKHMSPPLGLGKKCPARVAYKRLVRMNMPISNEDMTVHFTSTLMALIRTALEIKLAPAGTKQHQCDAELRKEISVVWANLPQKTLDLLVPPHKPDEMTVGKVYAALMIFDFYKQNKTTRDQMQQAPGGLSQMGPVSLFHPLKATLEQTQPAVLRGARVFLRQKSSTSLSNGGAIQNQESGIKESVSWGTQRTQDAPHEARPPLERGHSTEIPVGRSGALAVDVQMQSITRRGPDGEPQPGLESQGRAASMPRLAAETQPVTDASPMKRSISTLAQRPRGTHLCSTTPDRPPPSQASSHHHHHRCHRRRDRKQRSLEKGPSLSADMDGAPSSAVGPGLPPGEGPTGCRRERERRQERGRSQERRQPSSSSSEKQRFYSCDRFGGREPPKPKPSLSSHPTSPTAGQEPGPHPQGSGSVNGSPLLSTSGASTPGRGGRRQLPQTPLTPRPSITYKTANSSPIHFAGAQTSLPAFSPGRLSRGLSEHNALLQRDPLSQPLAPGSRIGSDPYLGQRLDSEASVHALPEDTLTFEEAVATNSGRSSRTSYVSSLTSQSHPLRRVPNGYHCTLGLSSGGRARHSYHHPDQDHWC
T1 sequence (Q02410 whole entry): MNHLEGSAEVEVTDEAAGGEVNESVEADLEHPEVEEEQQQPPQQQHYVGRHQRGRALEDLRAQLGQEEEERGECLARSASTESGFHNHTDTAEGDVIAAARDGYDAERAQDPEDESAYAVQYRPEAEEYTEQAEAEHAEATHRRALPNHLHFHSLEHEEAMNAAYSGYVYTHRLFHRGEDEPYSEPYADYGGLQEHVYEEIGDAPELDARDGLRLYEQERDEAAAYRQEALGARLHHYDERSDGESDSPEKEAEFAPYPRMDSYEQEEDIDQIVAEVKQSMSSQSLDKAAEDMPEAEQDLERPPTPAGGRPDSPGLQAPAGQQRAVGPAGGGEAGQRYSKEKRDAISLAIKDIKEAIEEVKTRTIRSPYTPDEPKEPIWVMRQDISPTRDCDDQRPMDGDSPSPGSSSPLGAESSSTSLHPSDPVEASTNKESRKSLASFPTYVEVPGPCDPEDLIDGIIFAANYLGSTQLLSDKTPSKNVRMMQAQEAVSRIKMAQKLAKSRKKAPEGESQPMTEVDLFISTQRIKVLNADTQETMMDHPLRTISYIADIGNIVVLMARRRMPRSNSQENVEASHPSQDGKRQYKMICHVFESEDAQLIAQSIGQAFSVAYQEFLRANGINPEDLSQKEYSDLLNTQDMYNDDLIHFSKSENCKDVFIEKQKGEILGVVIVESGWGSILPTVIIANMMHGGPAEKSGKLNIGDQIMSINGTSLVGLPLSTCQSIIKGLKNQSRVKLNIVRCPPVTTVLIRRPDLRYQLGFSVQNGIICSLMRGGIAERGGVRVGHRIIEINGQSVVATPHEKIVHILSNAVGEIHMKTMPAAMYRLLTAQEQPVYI
T4 sequence (P51452 whole entry): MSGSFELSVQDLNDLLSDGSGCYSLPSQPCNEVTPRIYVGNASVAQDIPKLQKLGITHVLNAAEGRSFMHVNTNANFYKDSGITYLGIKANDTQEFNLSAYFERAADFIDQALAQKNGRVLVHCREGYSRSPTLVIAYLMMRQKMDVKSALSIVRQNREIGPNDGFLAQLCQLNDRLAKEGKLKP
T2 sequence (Q9UBE0 whole entry): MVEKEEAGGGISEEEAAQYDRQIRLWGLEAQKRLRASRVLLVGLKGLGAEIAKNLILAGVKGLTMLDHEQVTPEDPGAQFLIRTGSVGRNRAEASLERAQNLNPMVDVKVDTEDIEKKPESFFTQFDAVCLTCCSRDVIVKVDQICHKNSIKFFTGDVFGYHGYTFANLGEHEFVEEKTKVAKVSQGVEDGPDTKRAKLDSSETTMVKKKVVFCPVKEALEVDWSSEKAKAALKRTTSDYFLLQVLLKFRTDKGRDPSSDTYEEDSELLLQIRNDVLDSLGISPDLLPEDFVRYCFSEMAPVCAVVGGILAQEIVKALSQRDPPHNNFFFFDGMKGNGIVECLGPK
T2 sequence (Q9UBT2 whole entry): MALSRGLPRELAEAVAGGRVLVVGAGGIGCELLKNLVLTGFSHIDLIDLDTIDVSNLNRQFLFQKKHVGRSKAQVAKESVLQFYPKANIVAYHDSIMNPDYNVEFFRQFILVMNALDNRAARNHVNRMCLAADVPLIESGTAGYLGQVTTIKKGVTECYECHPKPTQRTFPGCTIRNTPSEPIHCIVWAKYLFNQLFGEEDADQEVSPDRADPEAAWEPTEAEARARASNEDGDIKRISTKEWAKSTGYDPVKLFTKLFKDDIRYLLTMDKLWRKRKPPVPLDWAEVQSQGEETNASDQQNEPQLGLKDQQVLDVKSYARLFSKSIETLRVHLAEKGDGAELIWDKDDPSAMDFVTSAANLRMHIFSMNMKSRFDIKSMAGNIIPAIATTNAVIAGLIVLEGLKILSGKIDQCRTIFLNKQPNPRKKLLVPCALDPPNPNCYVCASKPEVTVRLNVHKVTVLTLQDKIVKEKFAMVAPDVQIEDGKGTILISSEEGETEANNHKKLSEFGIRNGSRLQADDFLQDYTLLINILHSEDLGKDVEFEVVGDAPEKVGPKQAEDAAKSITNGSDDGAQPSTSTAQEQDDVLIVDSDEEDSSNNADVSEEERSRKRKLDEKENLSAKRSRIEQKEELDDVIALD
T3 sequence (P63165 whole entry): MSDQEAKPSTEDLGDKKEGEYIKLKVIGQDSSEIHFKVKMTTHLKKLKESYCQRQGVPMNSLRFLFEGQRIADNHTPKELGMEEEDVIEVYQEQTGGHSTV
Chain of Intestinal-type alkaline phosphatase (Mus musculus, UniProt P24822) (P24822 whole entry): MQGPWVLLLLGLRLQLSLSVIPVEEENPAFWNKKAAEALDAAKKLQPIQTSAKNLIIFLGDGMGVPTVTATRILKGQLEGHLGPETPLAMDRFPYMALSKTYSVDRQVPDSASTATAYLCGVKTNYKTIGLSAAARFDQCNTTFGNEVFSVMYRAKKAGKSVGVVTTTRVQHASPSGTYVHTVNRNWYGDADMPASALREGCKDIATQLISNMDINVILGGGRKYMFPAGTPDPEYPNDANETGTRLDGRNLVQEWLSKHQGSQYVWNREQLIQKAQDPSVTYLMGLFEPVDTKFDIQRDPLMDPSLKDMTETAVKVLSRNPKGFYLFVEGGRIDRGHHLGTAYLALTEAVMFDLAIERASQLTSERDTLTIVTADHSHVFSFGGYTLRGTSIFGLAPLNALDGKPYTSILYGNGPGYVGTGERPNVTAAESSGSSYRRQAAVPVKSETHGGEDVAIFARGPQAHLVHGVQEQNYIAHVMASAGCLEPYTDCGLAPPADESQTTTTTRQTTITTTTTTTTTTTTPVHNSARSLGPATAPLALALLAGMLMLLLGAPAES

## Cc1cc(C)n(Cc2ccc(C(=O)N/N=C/c3ccc(-c4ccc([N+](=O)[O-])cc4)o3)o2)n1
[1]
  IC50: 14 µM (active)
SUMO-activating enzyme [2]
  IC50: 33 µM (active)
[3]
  IC50: > 55.7 µM (not active)
[4]
  IC50: 3.17 µM (active)
[5]
  IC50: 6.64 µM (active)
[6]
  IC50: 3.55 µM (active)
SUMO-activating enzyme [7]
  IC50: 5.62 µM (active)
[8]
  IC50: 40 µM (active)
[9]
  IC50: > 66.6 µM (inactive)
[10]
  IC50: 123 µM (inactive)
[11]
  IC50: 20.2 µM (active)

## Cc1ccc(-c2nc3c(Cl)cc(Cl)cc3c(=O)n2O)cc1
[12]
  EC50: > 180 µM (inactive)
[13]
  EC50: 2.19 µM (active)
[14]
  EC50: 3.24 µM (active)
Exodeoxyribonuclease V
  IC50: > 119 µM (inactive)
[15]
  AC50: 16.2 µM (active)
Streptococcus
  EC50: 2.15 µM (active)
[16]
  EC50: 31 µM (inconclusive)
[17]
  IC50: 15.1 µM (active)
[18]
  IC50: > 119 µM (inactive)
[19]
  EC50: 0.891 µM (active)

## Nc1cc(-c2ccccc2)nn1S(=O)(=O)c1c(F)c(F)c(F)c(F)c1F
[20]
  IC50: > 100 µM (not active)
Tumor necrosis factor
  IC50: > 20 µM (inactive)
HEK293
  IC50: > 20 µM (inactive)
[21]
  IC50: > 20 µM (inactive)
Bcl-2-related protein A1 [22]
  IC50: > 100 µM (not active)
[23]
  IC50: > 20 µM (inactive)
Bcl-2-related protein A1 [24]
  IC50: 5.83 µM (active)

## COc1cc(NC(S)=NCCC(c2ccccc2)c2ccccc2)cc(OC)c1
[25]
  IC50: 12.2 µM (active)
[26]
  IC50: 13.7 µM (active)
[27]
  IC50: > 100 µM (inactive)
[28]
  EC50: > 60 µM (not active)
[29]
  EC50: 2.02 µM (active)
